The values that follow come from ChEMBL document CHEMBL5038592, “Discovery of MK-8153, a Potent and Selective ROMK Inhibitor and Novel Diuretic/Natriuretic” (J Med Chem, 2021).

Data set [1] has as its target T1, ATP-sensitive inward rectifier potassium channel 1 (Homo sapiens, UniProt P48048).
T1 sequence (P48048 whole entry): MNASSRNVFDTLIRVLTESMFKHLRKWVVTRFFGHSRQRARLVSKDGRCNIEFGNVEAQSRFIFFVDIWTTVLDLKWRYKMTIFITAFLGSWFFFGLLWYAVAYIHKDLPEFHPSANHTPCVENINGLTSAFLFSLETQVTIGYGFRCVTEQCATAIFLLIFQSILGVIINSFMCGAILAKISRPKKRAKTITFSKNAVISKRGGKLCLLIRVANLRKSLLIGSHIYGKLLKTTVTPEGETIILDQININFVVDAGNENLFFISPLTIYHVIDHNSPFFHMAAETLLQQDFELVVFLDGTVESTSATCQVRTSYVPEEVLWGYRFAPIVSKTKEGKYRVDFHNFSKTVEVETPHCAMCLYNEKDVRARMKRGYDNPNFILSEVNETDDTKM
The experiment in a line: Inhibition of human ROMK expressed in CHO cells by whole cell voltage clamp electrophysiology assay. Format: cell-based.

Data set [2] can be described thus: Apparent permeability in pig LLC-PK1 cells.
For data set [3], the target named is Voltage-gated inwardly rectifying potassium channel KCNH2 (Homo sapiens, UniProt Q12809). Briefly: Inhibition of human ERG expressed in HEK-293 cells by voltage clamp electrophysiology assay.
Voltage-gated inwardly rectifying potassium channel KCNH2, sequence (Q12809 whole entry): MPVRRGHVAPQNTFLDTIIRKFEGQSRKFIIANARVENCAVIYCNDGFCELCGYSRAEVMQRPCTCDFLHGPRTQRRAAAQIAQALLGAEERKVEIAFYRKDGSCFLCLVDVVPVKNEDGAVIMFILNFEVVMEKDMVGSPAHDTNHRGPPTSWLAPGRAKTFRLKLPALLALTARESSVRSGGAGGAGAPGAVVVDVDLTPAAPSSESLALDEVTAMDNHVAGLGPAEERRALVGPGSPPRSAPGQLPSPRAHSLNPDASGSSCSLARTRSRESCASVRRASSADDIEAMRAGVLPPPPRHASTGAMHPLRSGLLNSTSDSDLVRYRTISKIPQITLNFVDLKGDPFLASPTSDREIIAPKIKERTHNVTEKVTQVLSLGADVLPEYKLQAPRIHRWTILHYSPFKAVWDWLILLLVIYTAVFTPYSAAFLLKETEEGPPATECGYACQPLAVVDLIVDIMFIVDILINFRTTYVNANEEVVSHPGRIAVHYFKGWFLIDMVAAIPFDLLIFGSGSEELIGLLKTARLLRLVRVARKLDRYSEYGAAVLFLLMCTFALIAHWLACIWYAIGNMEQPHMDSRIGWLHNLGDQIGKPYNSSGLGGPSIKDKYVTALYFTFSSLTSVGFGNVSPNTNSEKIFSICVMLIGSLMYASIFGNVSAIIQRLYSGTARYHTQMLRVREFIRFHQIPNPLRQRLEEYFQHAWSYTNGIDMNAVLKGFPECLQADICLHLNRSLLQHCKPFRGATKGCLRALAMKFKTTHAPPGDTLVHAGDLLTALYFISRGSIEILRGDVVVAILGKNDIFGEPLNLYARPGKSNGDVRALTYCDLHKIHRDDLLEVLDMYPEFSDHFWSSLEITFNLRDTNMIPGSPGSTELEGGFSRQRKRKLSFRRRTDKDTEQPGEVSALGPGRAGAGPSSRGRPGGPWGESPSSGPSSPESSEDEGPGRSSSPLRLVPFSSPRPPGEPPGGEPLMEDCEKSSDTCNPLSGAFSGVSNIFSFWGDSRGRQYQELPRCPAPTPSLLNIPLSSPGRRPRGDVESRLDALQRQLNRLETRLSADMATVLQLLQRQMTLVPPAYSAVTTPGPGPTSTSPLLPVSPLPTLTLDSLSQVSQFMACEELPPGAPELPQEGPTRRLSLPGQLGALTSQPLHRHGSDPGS
Another data set is filed under the species Homo sapiens. The experiment in a line: Selectivity index, ratio of IC50 for human ERG to IC50 for human ROMK.

The term IC50 denotes the concentration needed to halve the response being measured. Read a low IC50 as higher potency. What is called Papp is a coefficient for how fast a substance crosses the barrier. In the case of `CC1=C(N2C(=O)C3(CCN(C[C@H](O)c4ccc5c(c4C)COC5=O)CC3)CC2C)COC1=O` (some centres not stated), the IC50 amounted to 18 nM in data set [1] and 18000 nM in data set [3]. Besides, the Papp in data set [2] worked out at 18 ×10⁻⁶ cm/s.

As for `Cc1c([C@@H](O)CN2CCC3(CC2)CC(=O)N(C2=CC(=O)OC2)C3)ccc2c1COC2=O`, the Ratio in the data set filed under Homo sapiens was found to be 2000. In addition, the IC50 in data set [1] stood at 45 nM; in data set [3] it was 90000 nM. Also, in data set [2], the Papp is 7.9 ×10⁻⁶ cm/s.

Turning to `Cc1c([C@@H](O)CN2CCN(C[C@H](O)c3ccc4c(c3C)COC4=O)CC2)ccc2c1COC2=O` [MK-7145], the Papp in data set [2] is 20 ×10⁻⁶ cm/s. Besides, the IC50 in data set [3] was determined as 22000 nM.

In the case of `CC1=C(N2CCC3(CCN(C[C@H](O)c4ccc5c(c4C)COC5=O)CC3)C2=O)C(C)OC1=O` (some centres not stated), the IC50 came to 98 nM in data set [1] and 20000 nM in data set [3]. Moreover, the Papp in data set [2] turned out to be 20 ×10⁻⁶ cm/s.

As for `Cc1c([C@@H](O)CN2CCC3(CC2)CCN(C2=CC(=O)OC2)C3=O)ccc2c1COC2=O`, the Papp in data set [2] came out at 11 ×10⁻⁶ cm/s.

With `Cc1c([C@@H](O)CN2CCC3(CC2)CCN(C2=CC(=O)CC2)C3=O)ccc2c1COC2=O`, in data set [1], it took 11 nM to reach half-maximal inhibition (IC50).

Compound `Cc1c([C@@H](O)CN2CCC3(CC2)CCN(C2=C(Cl)C(=O)OC2)C3=O)ccc2c1COC2=O` came in with an IC50 in data set [1] of 6 nM. The apparent permeability (Papp) in data set [2] is 33 ×10⁻⁶ cm/s.

For `Cc1c([C@@H](O)CN2CCC3(CC2)CCN(C2=CC(=O)OC2C)C3=O)ccc2c1COC2=O` (some centres not stated), the results for the IC50 in data set [1] and in data set [3] were 24 nM and 19000 nM, respectively. Moreover, the Papp in data set [2] worked out at 19 ×10⁻⁶ cm/s.

Regarding `Cc1c([C@@H](O)CN2CCC3(CC2)CCN(C2=CC(=O)OC2)C3)ccc2c1COC2=O`, the Ratio in the data set filed under Homo sapiens is 3400. Also, the IC50 in data set [1] amounted to 26 nM; in data set [3] it was 90000 nM. Besides, the Papp in data set [2] turned out to be 27 ×10⁻⁶ cm/s.

For the compound `CC1=C(N2CCC3(CCN(C[C@H](O)c4ccc5c(c4C)COC5=O)CC3)C2=O)CCC1=O`, in data set [1], the IC50 turned out to be 15 nM. In addition, the Papp in data set [2] is 22 ×10⁻⁶ cm/s.

On to `CCC1=C(N2CCC3(CCN(C[C@H](O)c4ccc5c(c4C)COC5=O)CC3)C2=O)COC1=O`, for which inhibition in data set [1] was half-maximal at 18 nM (IC50). Besides, the Papp in data set [2] stood at 23 ×10⁻⁶ cm/s.
